From PubChem BioAssay AID434955 (Southern Research Specialized Biocontainment Screening …, 2010)

Each compound was assayed on M. tuberculosis H37Rv growth with meropenem, percent inhibition (assay: beta-lactam sensitization of Mtb H37Rv, H37Rv (AID 434955)).

SMILES | IC90 [µM]
Cc1ccc(C(=O)N/C(=C\c2ccc(-c3ccc(Cl)cc3)o2)C(=O)NCCCN(C)C)cc1 | 23.7
O=C1OC(/C=C/c2ccc(Cl)cc2Cl)=NC/1=C\c1cccs1 | 33.4
CC(=O)Nc1ccc(Nc2ncc([N+](=O)[O-])c(Nc3ccc(NC(C)=O)cc3)n2)cc1 | 45.5
O=c1oc(-c2ccco2)nc2sc3c(c12)CCCCC3 | 38.5
O=C(CN1CCC(O)(c2ccc3c(c2)OCO3)CC1)OC1CCCCC1 | 35.3
CCCCN(CC)S(=O)(=O)c1ccc(C(=O)Nc2nnc(CSC)o2)cc1 | 31.7
O=C1COc2ccc(C(=O)CCl)cc2N1 | 44.4
N#Cc1c(SCC(=O)O)nc(N2CCCCC2)c2c1CCCC2 | 27
COC(=O)CNC(c1ccccc1Cl)c1cc(Br)ccc1NC(=O)CCN1CCOCC1 (centres undefined) | 34.3
CCN(CC)S(=O)(=O)c1ccc(N/N=C(\C)c2ccc(OC)cc2O)nc1 | 10.4
C/C(=N\NC(=S)Nc1ccccc1C)c1ccc(O)cc1 | 7.97
NNC(=O)c1cccc(O)c1 | 73.9
CC1(C)CCN2CCC(C)(C)c3c(O)ccc1c32 | 49.3
C=CCNC1=C(Cl)C(=O)N(c2cccc(Cl)c2Cl)C1=O | 30.2
Cc1cc(C)n(-c2nc3ccccc3c(=O)n2OCC(=O)N(C)C)n1 | 23.3
Cc1nnnn1/C(=C\c1ccccc1)C(=O)OCC(=O)Nc1ccc(Cl)cc1F | 25.5
COc1ccc(-c2cc(C(F)F)nc(-n3nc(C)cc3C)n2)cc1 | 54.1
O=C(CCSc1ccc(Cl)c(Cl)c1)NC12CC3CC(CC(C3)C1)C2 | 12.3
O=C(/C=C/c1cccnc1)c1ccc(O)cc1 | 50.4
O=C(CCN1CCOCC1)c1ccc(N2CCCCC2)cc1 | 72.7

SMILES | IC90 [µM]
Cc1ccc(C)c(SCc2noc(C(=O)NCC3CCCO3)c2C(=O)O)c1 (centres undefined) | 48
O=C(N/N=C/c1ccc(OC(=O)c2ccc3c(c2)OCO3)cc1)c1cncc(Br)c1 | 48.3
OCCCc1cn(-c2ccccc2)c2ccccc12 | 60.8
Cc1ccc(SCCNC(=O)c2ccc(C)c([N+](=O)[O-])c2)cc1 | 54
COc1ccc(C(=O)/C=C/c2ccc(O)cc2)c(O)c1CC=C(C)C | 75.1
CCCCNC(=O)c1onc(CSc2ccc(OC)cc2)c1C(=O)O | 27.2
CCCCCCCN(C(=O)CCl)c1ccccc1C | 35.2
CC(NC(=O)CSc1nc2ccccc2c(=O)[nH]1)c1ccccc1 (centres undefined) | 60.9
COc1ccc(-c2csc(NC(CO)c3nc4ccccc4n3Cc3ccc(C)cc3)n2)cc1 (centres undefined) | 26.4
Cc1cccc(Cl)c1NC(=S)NN | 55.1
Cc1ccccc1OCC(=O)N/N=C/c1cccc(Oc2ccc([N+](=O)[O-])cc2[N+](=O)[O-])c1 | 5.4
COc1ccc2c(c1)c(C(C)=O)c(C)n2-c1ccccc1 | 6.92
CCN(CC(=O)Nc1ccc2c(c1)OCCO2)C(=O)c1ccc([N+](=O)[O-])s1 | 26
CCN(CC)c1ccc(CN2CCCCCC2)cc1 | 49.4
Cc1ccc(C(=O)Nc2c(C)cc(C)c3cccnc23)cc1 | 10.5
CN1CCN(c2ccc(NC(=O)c3ccc(-c4cccc([N+](=O)[O-])c4)o3)cc2)CC1 | 6.71
COc1cc2nc(N3CCN(C(=O)OCc4ccccc4)[C@H](C(=O)NC(C)(C)C)C3)nc(N)c2cc1OC | 84
O=[N+]([O-])c1cc(C(F)(F)F)ccc1NCCc1c[nH]c2ccc(O)cc12 | 72.9
CCOC(=O)c1c(C)[nH]c(C)c1C(=O)COC(=O)/C=C/c1ccc(OC(F)F)cc1 | 91.4
O=C(CCCCCN1C(=O)c2cccc([N+](=O)[O-])c2C1=O)Nc1ccccc1F | 44.1

SMILES | IC90 [µM]
Cc1cc(C)cc(NC(=O)c2cc(Cl)sc2Cl)c1 | 7.73
C=CCSc1nc2c(c(-c3ccsc3)c1C#N)CN(C)CC2 | 55.1
O=c1c2c3n(c(=S)nc2[nH]n1-c1ccccc1)CCCCC3 | 13.3
CC(O)/C=C/c1ccc2ccccc2n1 (centres undefined) | 57.5
Cc1cc(=O)[nH]c(N/N=C/c2c(O)n(-c3ccccc3)c(=O)c3ccccc23)n1 | 13.6
CCCCCn1c(=O)c(C(=O)Nc2cnccn2)c(O)c2ccccc21 | 13.8
CCc1cc2c(-c3ccccc3)cc(=O)oc2cc1OC(C)C(C)=O (centres undefined) | 48.5
Cc1cc(C)cc(OCC(=O)NNC(=O)c2ccccn2)c1 | 16
O=c1oc(-c2ccccc2F)nc2scc(-c3ccccc3)c12 | 3.05
C/C(CC(=O)NCc1ccco1)=N\NC(=O)CC#N | 17.6
CC(C)C1CC(CCNCc2ccc(N(C)C)cc2)(c2ccccc2)CCO1 (centres undefined) | 26.9
CCCCN(C)Cc1cc(=O)oc2cc3c(cc12)CCCC3 | 82.2
Cn1nnnc1Sc1ncnc2scc(-c3ccc(C(F)(F)F)cc3)c12 | 15
Cc1ccc(C)c(N2CCN(CC3CCCCC3)CC2)c1 | 52.4
Cc1onc(NC(=O)c2ccc([N+](=O)[O-])o2)c1Br | 16.4
COc1cccc(/C=N/Nc2nc(N3CCCC3)nc(N3CCCC3)n2)c1O | 36.1
CC(C)(C)c1ccc(OCc2ccc(C(=O)N/N=C3\CC4CC=CC34)cc2)cc1 (centres undefined) | 45.3
Cc1c(C=O)c(C=O)c(C)n1Cc1ccccc1 | 69.3
COc1cc(C(=S)N2CCOCC2)ccc1OC(=O)c1ccc([N+](=O)[O-])cc1[N+](=O)[O-] | 5.92
